Laboratory results published in publication PMC11590026, “Synthesis, enzyme inhibition, and docking studies of new schiff bases of disalicylic acid methylene-based derivatives as dual-target antibacterial agents” (Frontiers in Chemistry, 2024).
≈ marks a conversion by molar mass, not a printed value. Where two headings read alike, the source gives them in different places. One block for each compound: values may come before it.

Key:
B. subtilis [1] = system: B. subtilis; set-up: method as in Al-Wahaibi et al., 2024; details: ref Al-Wahaibi et al., 2024; cited from earlier work
Topoisomerase IV = details: earlier work; ref Al-Wahaibi et al., 2024; cited from earlier work
B. subtilis [2] = assay: Modified disk diffusion, inhibition zone; format: cell-based, Bacillus subtilis; details: B. subtilis (G+)
Description: (§1) The antimicrobial effects of the currently synthesized Schiff bases (6a-l) were tested against two Gram-positive bacteria (S. aureus and B. subtilis), two Gram-negative bacteria (E. coli and P. aeruginosa), and two strains of fungus (A. flavus and C. albicans). The modified disk diffusion method ([Alkhaldi et al., 2019]; [Manso et al., 2021]) was used to determine the inhibition zones (IZ, mm/mL) and the minimal inhibitory concentration (MIC, nM). Ciprofloxacin and Fluconazole was used as positive controls. Tables 1–3 display the findings. […]
(§2) incubated at 35-37 °C for 24-48 hours and yeast as Candida albicans (ATCC 7102) incubated at 30 °C for 24-48 hours and, then the diameters of the inhibition zones were measured in millimeters. Standard discs of ciprofloxacin (Antibacterial agent), Fluconazole (Antifungal agent) served as positive controls for antimicrobial activity but filter discs impregnated with 10 µl of solvent (distilled water, chloroform, DMSO) were used as a negative control. Blank paper disks (Schleicher & Schuell, Spain) with a diameter of 8.0 mm were impregnated 10µ of tested concentration of the stock solutions. When a filter paper disc impregnated with a tested chemical is placed on agar the chemical will diffuse from the disc into the agar. This diffusion will place the chemical in the agar only around the disc. […]

S. aureus [3] = assay: Modified disk diffusion, inhibition zone; format: cell-based, Staphylococcus aureus; details: S. aureus (G+)
Description: as §1, §2

E. coli [4] = assay: Modified disk diffusion, inhibition zone; format: cell-based, Escherichia coli; details: E. coli (G−)
Description: as §1, §2

P. aeruginosa [5] = assay: Modified disk diffusion, inhibition zone; format: cell-based, Pseudomonas aeruginosa; details: P. aeruginosa (G−)
Description: as §1, §2

[6] = system: A. flavus and C. albicans; assay: Disk diffusion inhibition zone, both fungi; format: cell-based; details: against A. flavus and C. albicans
Description: (§3) The antimicrobial effects of the currently synthesized Schiff bases (6a-l) were tested against two Gram-positive bacteria (S. aureus and B. subtilis), two Gram-negative bacteria (E. coli and P. aeruginosa), and two strains of fungus (A. flavus and C. albicans). The modified disk diffusion method ([Alkhaldi et al., 2019]; [Manso et al., 2021]) was used to determine the inhibition zones (IZ, mm/mL) and the minimal inhibitory concentration (MIC, nM). Ciprofloxacin and Fluconazole was used as positive controls. Tables 1–3 display the findings.

A. flavus [7] = assay: Antifungal assay (MIC/MFC), twofold serial dilution; details: for MIC: A. flavus
C. albicans [8] = assay: as above
[9] = biological target: S. aureus topoisomerase IV; details: internal standard value stated in the supplementary method; cited from earlier work
S. aureus [10] = system: S. aureus; set-up: method as in Al-Wahaibi et al., 2024; details: ref Al-Wahaibi et al., 2024; cited from earlier work
E. coli [11] = system: E. coli; set-up: method as in Al-Wahaibi et al., 2024; details: ref Al-Wahaibi et al., 2024; cited from earlier work
P. aeruginosa [12] = system: P. aeruginosa; set-up: method as in Al-Wahaibi et al., 2024; details: ref Al-Wahaibi et al., 2024; cited from earlier work
A. flavus [13] = assay: Modified disk diffusion, inhibition zone; format: cell-based, Aspergillus flavus
Description: as §1, §2

C. albicans [14] = assay: Modified disk diffusion, inhibition zone; format: cell-based, Candida albicans
Description: as §1, §2

B. subtilis [15] = assay: MIC/MBC assay, twofold serial dilution; format: cell-based, Bacillus subtilis
Description: (§4) The results of this in vitro assay test are consistent with the findings of the antimicrobial sensitivity test. […] It has lower antimicrobial activity than ciprofloxacin against all pathogens tested.
(§5) The MBC differs from the MIC. […]
(§6) 4.2.2. Minimum inhibitory concentration assay
(§7) In 96-well microtiter plates and […] of fresh bacterial culture of a single McFarland unit overnight, a double serial dilution of each compound […] in sterile standard saline were prepared to every single source well. Ciprofloxacin antibiotic (5 mg / mL - 1) and normal saline were included as standard reference in each assay. The plates were incubated at 37 0C overnight. As an indicator of bacterial growth, […] of p-iodonitrotetrazolium violet (INT) was added to each well and incubated at 37 0C for 30 […]
(§8) min. MIC values are recorded as the lowest concentration of the extract that completely inhibited bacterial growth that is clear well. The colorless tetrazolidium salt acts as an electron accepter and is reduced to a red colored formazan product by biological activity organisms. Where bacterial growth was inhibited, the solution in the well remained clear after incubation with INT. […]

S. aureus [16] = assay: MIC/MBC assay, twofold serial dilution; format: cell-based, Staphylococcus aureus
Description: as §4, §5, §6, §7, §8

E. coli [17] = assay: MIC/MBC assay, twofold serial dilution; format: cell-based, Escherichia coli
Description: as §4, §5, §6, §7, §8

P. aeruginosa [18] = assay: MIC/MBC assay, twofold serial dilution; format: cell-based, Pseudomonas aeruginosa
Description: as §4, §5, §6, §7, §8

[19] = system: Gram-positive and Gram-negative bacteria; assay: Disk diffusion inhibition zone, all bacterial pathogens tested; format: cell-based
Description: as §3

Structure (SMILES): CN(C)c1ccc(/C=N/NC(=O)c2cc(Cc3ccc(O)c(C(=O)N/N=C/c4ccc(N(C)C)cc4)c3)ccc2O)cc1 [Compound 5i]
- Times less potent/effective than ciprofloxacin (MIC) (B. subtilis [1]): 7 times
- IC50 (Topoisomerase IV): 5.8 µM

- MIC (A. flavus [7]): 11.50 ± 1 µM (≈ 3.52 µg/mL)
- MIC (A. flavus [7]; Aspergillus flavus): 11.5 µM (≈ 3.52 µg/mL)
- MIC (C. albicans [8]; C. albicans): 17.50 ± 1 µM (≈ 5.36 µg/mL)
- MIC (C. albicans [8]; Candida albicans): 17.5 µM (≈ 5.36 µg/mL)
Structure (SMILES): OC(Cn1cncn1)(Cn1cncn1)c1ccc(F)cc1F [Fluconazole, reference compound]
- Inhibition zone (IZ) diameter (B. subtilis [2]): NA (NA: no activity (8 mm))
- Inhibition zone (IZ) diameter (S. aureus [3]): NA (NA: no activity (8 mm))
- Inhibition zone (IZ) diameter (E. coli [4]): NA (NA: no activity (8 mm))
- Inhibition zone (IZ) diameter (P. aeruginosa [5]): NA (NA: no activity (8 mm))
- IZ values [6]: 40 mm
- MFC (A. flavus [7]; Aspergillus flavus): 22.8 ± 1 µM (≈ 6.98 µg/mL)
- MFC (C. albicans [8]; Candida albicans): 35 ± 2 µM (≈ 10.7 µg/mL)

Structure (SMILES): CO[C@@H]1[C@@H](OC(N)=O)[C@@H](O)[C@H](Oc2ccc3c(O)c(NC(=O)c4ccc(O)c(CC=C(C)C)c4)c(=O)oc3c2C)OC1(C)C [Novobiocin]
- IC50 [9]: 26.7 µM

Structure (SMILES): COc1ccccc1/C=N/NC(=O)c1cc(Cc2ccc(O)c(C(=O)N/N=C/c3ccccc3OC)c2)ccc1O [Compound 5h]
- MIC (S. aureus [10]): 0.030 µg/mL (≈ 0.0543 µM)
- MIC (E. coli [11]): 0.065 µg/mL (≈ 0.118 µM)
- MIC (P. aeruginosa [12]): 0.060 µg/mL (≈ 0.109 µM)
- MIC (B. subtilis [1]): 0.050 µg/mL (≈ 0.0905 µM)
- Times less potent/effective than ciprofloxacin (MIC) (B. subtilis [1]): five times less potent than ciprofloxacin
- IC50 (Topoisomerase IV): 3.5 µM

- MIC (B. subtilis [15]): 0.01 ± 0.001 µM (≈ 0.00331 µg/mL)
- MIC (B. subtilis [15]; Bacillus subtilis, read-out: MIC): 0.01 µM (≈ 0.00331 µg/mL)
- MIC (S. aureus [16]): 0.03 ± 0.002 µM (≈ 0.00994 µg/mL)
- MIC (S. aureus [16]; Staphylococcus aureus, read-out: MIC): 0.03 µM (≈ 0.00994 µg/mL)
- MIC (E. coli [17]; Escherichia coli, read-out: MIC): 0.06 ± 0.004 µM (≈ 0.0199 µg/mL)
- MIC (P. aeruginosa [18]; Pseudomonas aeruginosa, read-out: MIC): 0.06 ± 0.005 µM (≈ 0.0199 µg/mL)
Structure (SMILES): O=C(O)c1cn(C2CC2)c2cc(N3CCNCC3)c(F)cc2c1=O [Ciprofloxacin, reference compound]
- Inhibition zone (IZ) diameter (A. flavus [13]): NA (NA: no activity (8 mm))
- Inhibition zone (IZ) diameter (C. albicans [14]): NA (NA: no activity (8 mm))
- MBC (B. subtilis [15]): 0.019 ± 0.001 µM (≈ 0.0063 µg/mL)
- MBC (B. subtilis [15]; Bacillus subtilis, read-out: MBC): 0.019 µM (≈ 0.0063 µg/mL)
- MBC (S. aureus [16]): 0.045 ± 0.002 µM (≈ 0.0149 µg/mL)
- MBC (S. aureus [16]; Staphylococcus aureus, read-out: MBC): 0.045 µM (≈ 0.0149 µg/mL)
- MBC (E. coli [17]): 0.09 ± 0.006 µM (≈ 0.0298 µg/mL)
- MBC (E. coli [17]; Escherichia coli, read-out: MBC): 0.09 µM (≈ 0.0298 µg/mL)
- MBC (P. aeruginosa [18]): 0.09 ± 0.006 µM (≈ 0.0298 µg/mL)
- MBC (P. aeruginosa [18]; Pseudomonas aeruginosa, read-out: MBC): 0.09 µM (≈ 0.0298 µg/mL)
- Inhibition zones (IZ) [19]: 40 mm
